Measurements from US9340590B2 (priority 2011, dated 2016).
Read-outs that look alike come from different tables or passages of the source. Positions of bridges follow the written chain, without caps; N, C: chain ends. Residues, ends and D or L forms follow the SMILES beside them.

Tests used:
Assay in all cases: cell-based
hNav1.7 = hNav1.7 (Homo sapiens, UniProt Q15858); type: cell-based
hNav1.3 = hNav1.3 (Homo sapiens, UniProt Q9NY46); conditions: IonWorks Quattro, read-out: IWQ Use Nav1.3
hNav1.5 = hNav1.5 (Homo sapiens, UniProt Q14524)
[1] = IonWorks Quattro, Use, read-out: IWQ Use Nav1.7
[2] = IonWorks Quattro, Use, read-out: IWQ Use Nav1.5

Chain of hNav1.7 (Q15858 whole entry, looked up): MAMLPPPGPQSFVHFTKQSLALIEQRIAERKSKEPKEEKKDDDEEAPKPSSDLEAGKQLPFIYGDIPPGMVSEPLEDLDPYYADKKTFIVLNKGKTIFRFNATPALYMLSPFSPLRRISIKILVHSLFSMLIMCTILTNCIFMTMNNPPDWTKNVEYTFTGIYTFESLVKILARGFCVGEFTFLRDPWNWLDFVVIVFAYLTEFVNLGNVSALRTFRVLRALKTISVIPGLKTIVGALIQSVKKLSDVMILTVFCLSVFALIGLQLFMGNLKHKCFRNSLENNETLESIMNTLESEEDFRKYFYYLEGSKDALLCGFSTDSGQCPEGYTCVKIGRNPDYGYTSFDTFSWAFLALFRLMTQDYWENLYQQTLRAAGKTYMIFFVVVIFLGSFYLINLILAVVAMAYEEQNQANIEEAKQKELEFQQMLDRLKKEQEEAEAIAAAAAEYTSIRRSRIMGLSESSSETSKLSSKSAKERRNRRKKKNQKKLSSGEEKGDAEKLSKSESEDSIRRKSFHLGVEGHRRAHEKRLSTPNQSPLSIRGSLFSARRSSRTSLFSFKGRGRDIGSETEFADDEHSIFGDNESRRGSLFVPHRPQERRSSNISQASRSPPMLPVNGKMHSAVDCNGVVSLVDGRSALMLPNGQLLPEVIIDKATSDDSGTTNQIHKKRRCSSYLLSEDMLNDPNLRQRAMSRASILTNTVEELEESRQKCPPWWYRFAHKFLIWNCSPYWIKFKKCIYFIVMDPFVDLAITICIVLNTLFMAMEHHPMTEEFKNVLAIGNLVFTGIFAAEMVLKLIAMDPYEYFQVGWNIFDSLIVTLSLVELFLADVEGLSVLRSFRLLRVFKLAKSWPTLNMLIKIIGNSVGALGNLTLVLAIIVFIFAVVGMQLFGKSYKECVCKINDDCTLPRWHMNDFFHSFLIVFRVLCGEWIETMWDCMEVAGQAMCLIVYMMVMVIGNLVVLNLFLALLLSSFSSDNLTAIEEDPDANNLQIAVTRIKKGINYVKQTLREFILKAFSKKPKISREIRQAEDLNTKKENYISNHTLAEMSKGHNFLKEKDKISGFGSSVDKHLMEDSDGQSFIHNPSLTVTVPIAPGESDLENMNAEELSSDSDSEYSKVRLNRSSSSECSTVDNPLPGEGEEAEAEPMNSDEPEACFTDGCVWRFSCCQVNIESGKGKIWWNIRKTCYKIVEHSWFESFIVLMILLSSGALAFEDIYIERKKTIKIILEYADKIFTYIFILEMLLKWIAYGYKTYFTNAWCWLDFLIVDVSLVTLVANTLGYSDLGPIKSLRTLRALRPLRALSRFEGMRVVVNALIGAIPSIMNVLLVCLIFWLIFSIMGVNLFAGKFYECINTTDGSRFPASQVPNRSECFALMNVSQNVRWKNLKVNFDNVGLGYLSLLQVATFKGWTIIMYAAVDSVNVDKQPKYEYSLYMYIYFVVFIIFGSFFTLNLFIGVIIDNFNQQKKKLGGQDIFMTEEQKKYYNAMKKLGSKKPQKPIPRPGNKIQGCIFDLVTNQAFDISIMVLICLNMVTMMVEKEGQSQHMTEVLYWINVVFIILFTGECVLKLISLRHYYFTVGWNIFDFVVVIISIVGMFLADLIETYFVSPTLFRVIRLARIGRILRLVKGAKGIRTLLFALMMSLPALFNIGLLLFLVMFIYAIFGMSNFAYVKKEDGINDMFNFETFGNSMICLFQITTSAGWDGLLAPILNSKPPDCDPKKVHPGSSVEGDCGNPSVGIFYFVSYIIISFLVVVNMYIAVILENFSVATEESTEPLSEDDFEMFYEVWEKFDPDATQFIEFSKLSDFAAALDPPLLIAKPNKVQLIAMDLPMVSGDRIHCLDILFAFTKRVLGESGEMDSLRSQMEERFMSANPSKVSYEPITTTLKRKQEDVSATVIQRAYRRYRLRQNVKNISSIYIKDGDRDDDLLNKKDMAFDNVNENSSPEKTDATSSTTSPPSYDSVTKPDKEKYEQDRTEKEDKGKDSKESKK
Chain of hNav1.3 (Q9NY46 whole entry, looked up): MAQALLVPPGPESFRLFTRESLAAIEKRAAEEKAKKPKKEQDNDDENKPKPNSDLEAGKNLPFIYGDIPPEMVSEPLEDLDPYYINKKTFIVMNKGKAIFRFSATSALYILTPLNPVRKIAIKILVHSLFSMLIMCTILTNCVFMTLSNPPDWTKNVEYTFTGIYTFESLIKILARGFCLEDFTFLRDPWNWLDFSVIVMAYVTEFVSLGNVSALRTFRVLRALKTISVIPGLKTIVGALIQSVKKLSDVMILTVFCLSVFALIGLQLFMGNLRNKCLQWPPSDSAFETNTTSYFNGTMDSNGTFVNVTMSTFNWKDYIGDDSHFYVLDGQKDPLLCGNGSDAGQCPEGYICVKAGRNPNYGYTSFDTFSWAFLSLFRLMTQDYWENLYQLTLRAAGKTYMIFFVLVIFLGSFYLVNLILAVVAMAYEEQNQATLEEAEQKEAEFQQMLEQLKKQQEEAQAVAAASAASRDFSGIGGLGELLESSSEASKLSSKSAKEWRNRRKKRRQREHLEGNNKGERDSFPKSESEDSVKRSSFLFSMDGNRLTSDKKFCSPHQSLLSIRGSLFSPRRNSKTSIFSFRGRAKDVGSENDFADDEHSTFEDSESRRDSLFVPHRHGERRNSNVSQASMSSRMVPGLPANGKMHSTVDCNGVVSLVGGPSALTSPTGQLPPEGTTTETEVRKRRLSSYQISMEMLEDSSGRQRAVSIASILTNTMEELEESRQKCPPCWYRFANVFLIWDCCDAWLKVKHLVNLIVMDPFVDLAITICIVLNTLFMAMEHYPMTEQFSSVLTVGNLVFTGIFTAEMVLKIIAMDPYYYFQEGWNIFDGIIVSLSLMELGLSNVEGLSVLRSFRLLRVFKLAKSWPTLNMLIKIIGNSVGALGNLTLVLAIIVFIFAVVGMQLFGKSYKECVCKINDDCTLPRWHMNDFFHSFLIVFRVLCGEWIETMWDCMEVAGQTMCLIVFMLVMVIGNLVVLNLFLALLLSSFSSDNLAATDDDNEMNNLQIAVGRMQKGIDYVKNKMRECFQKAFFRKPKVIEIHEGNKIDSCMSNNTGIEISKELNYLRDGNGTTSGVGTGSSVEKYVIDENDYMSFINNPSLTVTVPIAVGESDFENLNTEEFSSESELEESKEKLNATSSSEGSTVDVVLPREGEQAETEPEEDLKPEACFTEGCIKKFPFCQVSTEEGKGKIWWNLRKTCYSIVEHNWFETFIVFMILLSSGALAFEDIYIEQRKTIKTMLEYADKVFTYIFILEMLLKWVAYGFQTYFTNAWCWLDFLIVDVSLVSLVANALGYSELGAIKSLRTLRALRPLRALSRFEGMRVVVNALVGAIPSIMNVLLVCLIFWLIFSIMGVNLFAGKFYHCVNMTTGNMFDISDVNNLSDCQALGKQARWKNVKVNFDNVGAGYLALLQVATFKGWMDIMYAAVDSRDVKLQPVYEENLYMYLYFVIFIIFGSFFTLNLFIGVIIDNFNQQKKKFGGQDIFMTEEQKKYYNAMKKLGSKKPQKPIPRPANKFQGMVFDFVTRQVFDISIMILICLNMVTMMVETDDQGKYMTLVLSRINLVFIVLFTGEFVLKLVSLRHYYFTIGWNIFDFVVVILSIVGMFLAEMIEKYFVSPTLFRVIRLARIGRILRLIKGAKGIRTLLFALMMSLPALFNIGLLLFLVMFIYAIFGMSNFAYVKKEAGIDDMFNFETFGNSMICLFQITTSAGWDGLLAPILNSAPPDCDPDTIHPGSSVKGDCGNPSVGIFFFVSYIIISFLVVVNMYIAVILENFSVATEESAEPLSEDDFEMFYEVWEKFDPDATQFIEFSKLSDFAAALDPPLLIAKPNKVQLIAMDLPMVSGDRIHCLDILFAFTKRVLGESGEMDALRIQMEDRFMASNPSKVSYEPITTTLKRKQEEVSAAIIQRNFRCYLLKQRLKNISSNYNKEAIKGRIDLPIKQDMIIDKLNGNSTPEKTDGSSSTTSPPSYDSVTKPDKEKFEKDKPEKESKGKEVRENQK

| SMILES | IC50 (hNav1.7; [1]) | IC50 (hNav1.3; Use) | IC50 (hNav1.5; [2]) | other results |
| --- | --- | --- | --- | --- |
| CC[C@H](C)[C@@H]1NC(=O)[C@@H]2CSSC[C@@H]3NC(=O)[C@H](C(C)C)NC(=O)[C@H](CC(C)C)NC(=O)[C@H](CC(N)=O)NC(=O)[C@@H]4CCCN4C(=O)[C@H](CCCNC(=N)N)NC(=O)[C@H](CSSC[C@H](NC(=O)[C@@H](N)CC(=O)O)C(=O)N[C@@H](CC(C)C)C(=O)NCC(=O)N[C@@H](Cc4ccccc4)C(=O)N[C@@H](CCSC)C(=O)N[C@@H](CCCNC(=N)N)C(=O)N[C@@H](CCCCN)C(=O)N2)NC(=O)[C@H](CSSC[C@@H](C(=O)N[C@@H](CCCCN)C(=O)N[C@@H](Cc2ccc(O)cc2)C(=O)N[C@H](C(=O)N[C@@H](CCC(=O)O)C(N)=O)C(C)C)NC(=O)[C@H](Cc2c[nH]c4ccccc24)NC(=O)[C@H](CCCCN)NC(=O)[C@H](Cc2cnc[nH]2)NC(=O)[C@H]([C@@H](C)O)NC(=O)[C@H](CCCNC(=N)N)NC(=O)[C@H](CO)NC3=O)NC(=O)[C@H](CCCCN)NC(=O)[C@H](CC(=O)O)NC(=O)[C@H](CC(N)=O)NC(=O)[C@H](CC(=O)O)NC(=O)[C@@H]2CCCN2C1=O [compound 34] (H-DCLGFMRKCIPDNDKCCRPNLVCSRTHKWCKYVE-NH2; disulfide 2-17, 9-23, 16-30) |  |  |  | IC50 (hNav1.7; IonWorks Quattro, use-dependent, […], read-out: IWQ Use Nav1.7): 17 µM; IC50 (hNav1.3; use-dependent, […]): 11.2 µM; IC50 (hNav1.5; IWQ Use Nav1.5 (μM)): 16.8 µM |
| CC[C@H](C)[C@@H]1NC(=O)[C@@H]2CSSC[C@@H]3NC(=O)[C@H](C(C)C)NC(=O)[C@H](CC(C)C)NC(=O)[C@H](CC(N)=O)NC(=O)[C@@H]4CCCN4C(=O)[C@H](CCCNC(=N)N)NC(=O)[C@H](CSSC[C@H](NC(=O)[C@@H](N)CC(=O)O)C(=O)N[C@@H](CC(C)C)C(=O)NCC(=O)N[C@@H](Cc4ccccc4)C(=O)N[C@@H](CCSC)C(=O)N[C@@H](CCCNC(=N)N)C(=O)N[C@@H](CCCCN)C(=O)N2)NC(=O)[C@H](CSSC[C@@H](C(=O)N[C@@H](CCCCN)C(=O)N[C@@H](Cc2ccc(O)cc2)C(=O)N[C@H](C(=O)N[C@@H](Cc2ccccc2)C(=O)N[C@@H](CCC(=O)O)C(N)=O)C(C)C)NC(=O)[C@H](Cc2c[nH]c4ccccc24)NC(=O)[C@H](CCCCN)NC(=O)[C@H](Cc2c[nH]cn2)NC(=O)[C@H]([C@@H](C)O)NC(=O)[C@H](CCCNC(=N)N)NC(=O)[C@H](CO)NC3=O)NC(=O)[C@H](CCCCN)NC(=O)[C@H](CC(=O)O)NC(=O)[C@H](CC(N)=O)NC(=O)[C@H](CC(=O)O)NC(=O)[C@@H]2CCCN2C1=O [compound 35] |  |  |  | IC50 (hNav1.7; IonWorks Quattro, use-dependent, […], read-out: IWQ Use Nav1.7 (μm)): 4.47 µM; IC50 (hNav1.3; use-dependent, […]): 2.47 µM; IC50 (hNav1.5; IWQ Use Nav1.5 (μM)): 19.6 µM |
| CSCC[C@@H]1NC(=O)[C@H](Cc2ccccc2)NC(=O)CNC(=O)[C@H](CC(C)C)NC(=O)[C@@H](NC(=O)[C@@H](N)CC(=O)O)CSSC[C@@H]2NC(=O)[C@@H]3CSSC[C@@H](C(=O)N[C@@H](CCCCN)C(=O)N[C@@H](Cc4ccc(O)cc4)C(=O)N[C@H](C(=O)N[C@@H](Cc4ccccc4)C(N)=O)C(C)C)NC(=O)[C@H](Cc4c[nH]c5ccccc45)NC(=O)[C@H](CCCCN)NC(=O)[C@H](Cc4cnc[nH]4)NC(=O)[C@H]([C@@H](C)O)NC(=O)[C@H](CCCNC(=N)N)NC(=O)[C@H](CO)NC(=O)[C@H](CSSC[C@H](NC(=O)[C@H](CCCCN)NC(=O)[C@H](CCCNC(=N)N)NC1=O)C(=O)N[C@@H](CCCCN)C(=O)N1CCC[C@H]1C(=O)N[C@@H](CC(=O)O)C(=O)N[C@@H](CC(N)=O)C(=O)N[C@@H](CC(=O)O)C(=O)N[C@@H](CCCCN)C(=O)N3)NC(=O)[C@H](C(C)C)NC(=O)[C@H](CC(C)C)NC(=O)[C@H](CC(N)=O)NC(=O)[C@@H]1CCCN1C(=O)[C@H](CCCNC(=N)N)NC2=O [compound 41] (H-DCLGFMRKCKPDNDKCCRPNLVCSRTHKWCKYVF-NH2; disulfide 2-17, 9-23, 16-30) | 0.24 µM | 0.15 µM | 9 µM |  |
| CC[C@H](C)[C@@H]1NC(=O)[C@@H]2CSSC[C@@H]3NC(=O)[C@H](C(C)C)NC(=O)[C@H](CC(C)C)NC(=O)[C@H](CC(N)=O)NC(=O)[C@@H]4CCCN4C(=O)[C@H](CCCNC(=N)N)NC(=O)[C@H](CSSC[C@H](NC(=O)[C@@H](N)CC(=O)O)C(=O)N[C@@H](CC(C)C)C(=O)NCC(=O)N[C@@H](Cc4ccccc4)C(=O)N[C@@H](CCSC)C(=O)N[C@@H](CCCNC(=N)N)C(=O)N[C@@H](CCCCN)C(=O)N2)NC(=O)[C@H](CSSC[C@@H](C(=O)N[C@@H](CCCCN)C(=O)N[C@@H](Cc2ccc(O)cc2)C(=O)N[C@H](C(=O)N[C@@H](Cc2ccccc2)C(N)=O)C(C)C)NC(=O)[C@H](Cc2c[nH]c4ccccc24)NC(=O)[C@H](CCCCN)NC(=O)[C@H](Cc2cnc[nH]2)NC(=O)[C@H]([C@@H](C)O)NC(=O)[C@H](CCCNC(=N)N)NC(=O)[C@H](CO)NC3=O)NC(=O)[C@H](CCCCN)NC(=O)[C@H](CC(=O)O)NC(=O)[C@H](CC(N)=O)NC(=O)[C@H](CC(=O)O)NC(=O)[C@H](C)NC1=O [compound 46] (H-DCLGFMRKCIADNDKCCRPNLVCSRTHKWCKYVF-NH2; disulfide 2-17, 9-23, 16-30) | 0.21 µM | 0.18 µM | 16.1 µM |  |
| CC[C@H](C)[C@@H]1NC(=O)[C@@H]2CSSC[C@@H]3NC(=O)[C@H](C(C)C)NC(=O)[C@H](CC(C)C)NC(=O)[C@H](CC(N)=O)NC(=O)[C@@H]4CCCN4C(=O)[C@H](CCCNC(=N)N)NC(=O)[C@H](CSSC[C@H](NC(=O)[C@@H](N)CC(=O)O)C(=O)N[C@@H](CC(C)C)C(=O)NCC(=O)N[C@@H](Cc4ccccc4)C(=O)N[C@@H](CCSC)C(=O)N[C@@H](CCCNC(=N)N)C(=O)N[C@@H](CCCCN)C(=O)N2)NC(=O)[C@H](CSSC[C@@H](C(=O)N[C@@H](CCCCN)C(=O)N[C@@H](Cc2ccc(O)cc2)C(=O)N[C@H](C(=O)N[C@@H](Cc2ccccc2)C(N)=O)C(C)C)NC(=O)[C@H](C)NC(=O)[C@H](CCCCN)NC(=O)[C@H](Cc2cnc[nH]2)NC(=O)[C@H]([C@@H](C)O)NC(=O)[C@H](CCCNC(=N)N)NC(=O)[C@H](CO)NC3=O)NC(=O)[C@H](CCCCN)NC(=O)[C@H](CC(=O)O)NC(=O)[C@H](CC(N)=O)NC(=O)[C@H](CC(=O)O)NC(=O)[C@@H]2CCCN2C1=O [compound 47] (H-DCLGFMRKCIPDNDKCCRPNLVCSRTHKACKYVF-NH2; disulfide 2-17, 9-23, 16-30) |  |  |  | IC50 (hNav1.7; Table 24, IonWorks Quattro, use, […], read-out: IWQ Use Nav1.7): 11.7 µM; IC50 (hNav1.3; Table 24, use, […]): 27.5 µM; IC50 (hNav1.5; Table 24, IonWorks Quattro, use, […], read-out: IWQ Use Nav1.5): 16.2 µM |
| CC[C@H](C)[C@@H]1NC(=O)[C@@H]2CSSC[C@@H]3NC(=O)[C@H](C(C)C)NC(=O)[C@H](CC(C)C)NC(=O)[C@H](CC(N)=O)NC(=O)[C@@H]4CCCN4C(=O)[C@H](CCCCN)NC(=O)[C@H](CSSC[C@H](NC(=O)[C@@H](N)CC(=O)O)C(=O)N[C@@H](CC(C)C)C(=O)NCC(=O)N[C@@H](Cc4ccccc4)C(=O)N[C@@H](CCSC)C(=O)N[C@@H](CCCNC(=N)N)C(=O)N[C@@H](CCCCN)C(=O)N2)NC(=O)[C@H](CSSC[C@@H](C(=O)N[C@@H](CCCCN)C(=O)N[C@@H](Cc2ccc(O)cc2)C(=O)N[C@H](C(=O)N[C@@H](Cc2ccccc2)C(N)=O)C(C)C)NC(=O)[C@H](Cc2c[nH]c4ccccc24)NC(=O)[C@H](CCCCN)NC(=O)[C@H](Cc2cnc[nH]2)NC(=O)[C@H]([C@@H](C)O)NC(=O)[C@H](CCCNC(=N)N)NC(=O)[C@H](CO)NC3=O)NC(=O)[C@H](CCCCN)NC(=O)[C@H](CC(=O)O)NC(=O)[C@H](CC(N)=O)NC(=O)[C@H](CC(=O)O)NC(=O)[C@@H]2CCCN2C1=O [compound 49] (H-DCLGFMRKCIPDNDKCCKPNLVCSRTHKWCKYVF-NH2; disulfide 2-17, 9-23, 16-30) |  | 0.21 µM | 17.6 µM | IC50 (hNav1.7): 0.3 µM |
| CC[C@H](C)[C@@H]1NC(=O)[C@@H]2CSSC[C@@H]3NC(=O)[C@H](C(C)C)NC(=O)[C@H](CC(C)C)NC(=O)[C@H](CCCCN)NC(=O)[C@@H]4CCCN4C(=O)[C@H](CCCNC(=N)N)NC(=O)[C@H](CSSC[C@H](NC(=O)[C@@H](N)CC(=O)O)C(=O)N[C@@H](CC(C)C)C(=O)NCC(=O)N[C@@H](Cc4ccccc4)C(=O)N[C@@H](CCSC)C(=O)N[C@@H](CCCNC(=N)N)C(=O)N[C@@H](CCCCN)C(=O)N2)NC(=O)[C@H](CSSC[C@@H](C(=O)N[C@@H](CCCCN)C(=O)N[C@@H](Cc2ccc(O)cc2)C(=O)N[C@H](C(=O)N[C@@H](Cc2ccccc2)C(N)=O)C(C)C)NC(=O)[C@H](Cc2c[nH]c4ccccc24)NC(=O)[C@H](CCCCN)NC(=O)[C@H](Cc2cnc[nH]2)NC(=O)[C@H]([C@@H](C)O)NC(=O)[C@H](CCCNC(=N)N)NC(=O)[C@H](CO)NC3=O)NC(=O)[C@H](CCCCN)NC(=O)[C@H](CC(=O)O)NC(=O)[C@H](CC(N)=O)NC(=O)[C@H](CC(=O)O)NC(=O)[C@@H]2CCCN2C1=O [compound 51] (H-DCLGFMRKCIPDNDKCCRPKLVCSRTHKWCKYVF-NH2; disulfide 2-17, 9-23, 16-30) | 0.61 µM | 0.33 µM | 19 µM |  |
